The text below walks through data of PubChem BioAssay (NCI).

Test systems include U251 CNS; SF-295 CNS; CCRF-CEM leukemia; HCT-116 colon; SF-539 CNS; MOLT-4 leukemia; SK-MEL-5 melanoma; SK-MEL-28 melanoma; SNB-19 CNS; MDA-MB-435.
What all share (assay): NCI tumour cell line growth inhibition, 48 h

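Cells were grown in 96-well plates and exposed to each compound for 48 hours at five concentrations; endpoints were interpolated linearly between bracketing concentrations, or set to the highest concentration if not reached. The concentration for 50% growth inhibition is given as GI50. TGI marks complete inhibition of growth.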

Regarding `O=C1C2C(C(=O)[N]1[Hg][c]1cccs1)C1(Cl)C(Cl)=C(Cl)C2(Cl)C1(Cl)Cl` (centres undefined), the GI50 in the assay on U251 CNS is 0.466 µM; in the assay with SF-295 CNS it was 3.11 µM; in the assay on CCRF-CEM leukemia it was 0.29 µM; in the assay on HCT-116 colon it was 1.25 µM; with SF-539 CNS it was 2.08 µM; in the assay on MOLT-4 leukemia it was 0.371 µM. Also, the GI50 was 1.55 µM in the assay with SK-MEL-5 melanoma, 1.24 µM in the assay on SK-MEL-28 melanoma, 1.72 µM in the assay on SNB-19 CNS and 1.47 µM in the assay on MDA-MB-435. Also, the TGI in the assay on U251 CNS was determined as 1.68 µM; in the assay with SF-295 CNS, 8.53 µM; with HCT-116 colon, 2.54 µM; in the assay with SF-539 CNS, 4.76 µM; in the assay on MOLT-4 leukemia, 5.01 µM; with SK-MEL-5 melanoma, 3.06 µM. Moreover, the TGI in the assay with SK-MEL-28 melanoma came to 2.7 µM; in the assay on SNB-19 CNS, 3.4 µM; with MDA-MB-435 it was 3.05 µM.
`O=c1c2c3c(sc2n2c(-c4cc(-c5ccccc5)no4)nnc2n1Cc1ccccc1)CCCC3`: the GI50 was 17.3 µM in the assay on U251 CNS; 6.53 µM in the assay with SF-295 CNS; 3.22 µM with CCRF-CEM leukemia; 10.3 µM in the assay with HCT-116 colon; 19.2 µM with SF-539 CNS; 3.72 µM with MOLT-4 leukemia. For the same compound, the GI50 is 9.77 µM with SK-MEL-5 melanoma, 22.9 µM with SK-MEL-28 melanoma, 31.8 µM with SNB-19 CNS and 24.1 µM with MDA-MB-435. Also, the TGI is greater than 100 µM with U251 CNS; 31.7 µM in the assay on SF-295 CNS; greater than 37.7 µM in the assay on CCRF-CEM leukemia; 24.5 µM in the assay on HCT-116 colon; 72.2 µM in the assay on SF-539 CNS; 32.7 µM with MOLT-4 leukemia. Also, the TGI with SK-MEL-5 melanoma is 22.9 µM; with SK-MEL-28 melanoma, 76 µM; in the assay on SNB-19 CNS it was greater than 100 µM; with MDA-MB-435 it was greater than 91.9 µM.
For the compound `O=c1ccc(N=Nc2ccc([N+](=O)[O-])cc2)ccc1O`, the GI50 with U251 CNS is 4.46 µM; in the assay on SF-295 CNS, 4.57 µM; in the assay on CCRF-CEM leukemia it was 3.68 µM; in the assay with HCT-116 colon, 4.19 µM; in the assay with SF-539 CNS, 4.38 µM; in the assay on MOLT-4 leukemia, 4.08 µM. The GI50 was 6.55 µM in the assay on SK-MEL-5 melanoma, 8.65 µM with SK-MEL-28 melanoma, 4.14 µM in the assay on SNB-19 CNS and 9.14 µM with MDA-MB-435. For the same compound, the TGI in the assay on U251 CNS, with SF-295 CNS, in the assay with CCRF-CEM leukemia, in the assay with HCT-116 colon, in the assay on SF-539 CNS and in the assay on MOLT-4 leukemia was greater than 100 µM each time. Further, the TGI in the assay on SK-MEL-5 melanoma, in the assay on SK-MEL-28 melanoma, with SNB-19 CNS and with MDA-MB-435 was greater than 100 µM throughout.
For the compound `CCCCOc1ccc(NC(=O)n2nc(N)c3ccccc32)cc1`, the GI50 in the assay with U251 CNS was 30.9 µM; in the assay with SF-295 CNS, 23.5 µM; with CCRF-CEM leukemia, 0.0755 µM; with HCT-116 colon, 19.3 µM; in the assay on SF-539 CNS, 17.2 µM; in the assay with MOLT-4 leukemia, 0.921 µM. The GI50 with SK-MEL-5 melanoma was 14.9 µM; in the assay with SK-MEL-28 melanoma, 28.3 µM; with SNB-19 CNS, 52 µM; with MDA-MB-435, 22.8 µM. In addition, the TGI in the assay on U251 CNS was greater than 100 µM; with SF-295 CNS it was 79.3 µM; in the assay with CCRF-CEM leukemia, 4.68 µM; in the assay on HCT-116 colon it was 55.7 µM; in the assay on SF-539 CNS, 35.7 µM; with MOLT-4 leukemia, 34.8 µM. Moreover, the TGI was 28.2 µM with SK-MEL-5 melanoma, greater than 90.5 µM with SK-MEL-28 melanoma, greater than 100 µM in the assay with SNB-19 CNS and greater than 65.1 µM with MDA-MB-435.
Regarding `Nc1ncnc2c1ncn2Cc1ccc(C23CC4CC(CC(C4)C2)C3)c(OCc2cc(F)c(F)cc2F)c1`, the GI50 was 5.59 µM in the assay on U251 CNS; 6.29 µM with SF-295 CNS; 2.4 µM in the assay with CCRF-CEM leukemia; 3.08 µM in the assay on HCT-116 colon; 50.2 µM in the assay with SF-539 CNS; 2.69 µM in the assay on MOLT-4 leukemia. Further, the GI50 in the assay with SK-MEL-5 melanoma is 0.955 µM; in the assay with SK-MEL-28 melanoma, greater than 100 µM; in the assay on SNB-19 CNS, 29.5 µM; in the assay with MDA-MB-435, 5.22 µM. Also, the TGI was 42.8 µM with U251 CNS; greater than 100 µM in the assay with SF-295 CNS; 6.84 µM with CCRF-CEM leukemia; 13.2 µM in the assay with HCT-116 colon; greater than 100 µM in the assay with SF-539 CNS; 7.97 µM in the assay with MOLT-4 leukemia. In addition, the TGI with SK-MEL-5 melanoma, with SK-MEL-28 melanoma, with SNB-19 CNS and in the assay with MDA-MB-435 was greater than 100 µM each time.
As to `Cc1cc(NCCCNc2ccnc3cc(Cl)ccc23)nc(N2CCN(C)CC2)n1`, the GI50 is 3.91 µM in the assay with U251 CNS; 3.51 µM in the assay on SF-295 CNS; 2.59 µM with CCRF-CEM leukemia; 2.22 µM with HCT-116 colon; 1.84 µM in the assay on SF-539 CNS; 2.46 µM in the assay on MOLT-4 leukemia. In addition, the GI50 in the assay with SK-MEL-5 melanoma was 1.67 µM; in the assay with SK-MEL-28 melanoma, 1.84 µM; with SNB-19 CNS, 12.5 µM; with MDA-MB-435, 2.57 µM. Moreover, the TGI in the assay with U251 CNS is 17.2 µM; in the assay with SF-295 CNS it was 12.3 µM; in the assay on CCRF-CEM leukemia, 14.7 µM; in the assay with HCT-116 colon, 13 µM; in the assay on SF-539 CNS it was 3.6 µM; in the assay with MOLT-4 leukemia it was 15.8 µM. Also, the TGI in the assay with SK-MEL-5 melanoma was found to be 3.24 µM; with SK-MEL-28 melanoma it was 3.67 µM; in the assay with SNB-19 CNS it was 49.5 µM; with MDA-MB-435, 7.07 µM.
